{"source": "patent US10550143B2", "about": "“C,O-spiro aryl glycoside compounds, preparation therefor and use thereof” (SHANGHAI INSTITUTE OF MATERIA MEDICA, CHINESE ACADEMY OF …, priority 2015, dated 2020)", "key": {"SD rats": {"test_system": "SD rats", "assay": "Acute single administration, urinary glucose changes in SD rats", "type": "in vivo, rat", "set-up": "Urine glucose concentration / The total amount of glucose excreted: unit not given here", "conditions": "1 mg/kg oral, after 24 h", "protocol": "(1) Acutely Administering Compound to Observed the Urinary Glucose Changes in SD Rats\nThirty-eight male normal SD rats were selected and randomly divided into 5 groups according to body weight and blood glucose, 6-8 in each group. […] After oral gavage, the rats were placed in rats metabolic cages, and urine was collected after 24 h, and the urine volume was recorded, the urine sugar concentration was determined, and urinary sugar content was calculated according to the following formula. Urine content=urinary sugar concentration×urine volume\nGlucose levels in urine are measured by the glucose assay kit.\nData were expressed as mean±standard deviation (x±s), and Student's t test was used for statistical analysis of the data, p<0.05 was considered statistically significant."}, "db/db mice": {"test_system": "db/db mice", "assay": "Chronic administration, random blood glucose in db/db mice", "type": "in vivo, mouse", "conditions": "for random blood glucose Pre: before administration; for Hypoglycemic rate % week 1 / Hypoglycemic rate % week 2 / Hypoglycemic rate % week 3 / Hypoglycemic rate % week 4: random blood glucose", "protocol": "Oral gavage administrated, daily dose volume was 10 mL/kg, administered once daily. Administration time was 9: 00-10:00 daily, and the administration period was 5 weeks.\nThe random blood glucose of mice in the normal control group, model control group, test substance administration group and positive control group were determined on the 7th, 14th, 21st, 28th day (9: 00-10:00) every week after the first administration, and food was removed and after 6 hours of starvation, the fasting blood glucose in each group was measured. Free drinking during the hunger process. The rate of decrease of blood glucose was calculated according to the following formula: Average hypoglycemic rate %=(Blood glucose of model control group−Blood glucose of administration group)/Model control group×100%"}}}
{"smiles": "CCc1ccc(Cc2cc3c(cc2Cl)CO[C@]32O[C@H](C)[C@@H](O)[C@H](O)[C@H]2O)s1", "note": "[Example A28, (1S,3′R,4′S,5′S,6′R)-6′-methyl-6-((5-ethylthienyl)-2-methyl)-5-chloro-3′,4′,5′,6′-tetrahydro-3H-spiro[isobenzofuran-1,2′-pyran]-3′,4′,5′-triol]", "values": [{"measurement": "The total amount of glucose excreted", "setting": "SD rats; Table 3", "result": "337.10 ± 313.7"}, {"measurement": "Urine glucose concentration", "setting": "SD rats; Table 3", "result": "76.29 ± 71.20"}, {"measurement": "Urine volume", "setting": "SD rats; Table 3, in mL", "result": "24 ± 6.63"}, {"measurement": "random blood glucose week 1", "setting": "db/db mice; 0.3 mg/kg once daily oral", "result": "16.9 ± 1.3", "unit": "mmol/L"}, {"measurement": "random blood glucose week 2", "setting": "db/db mice; 0.3 mg/kg once daily oral", "result": "15.7 ± 1.3", "unit": "mmol/L"}, {"measurement": "random blood glucose week 3", "setting": "db/db mice; 0.3 mg/kg once daily oral", "result": "16.7 ± 1.5", "unit": "mmol/L"}, {"measurement": "random blood glucose week 4", "setting": "db/db mice; 0.3 mg/kg once daily oral", "result": "19.1 ± 1.6", "unit": "mmol/L"}, {"measurement": "random blood glucose Pre", "setting": "db/db mice; 0.3 mg/kg once daily oral", "result": "17.9 ± 1.4", "unit": "mmol/L"}, {"measurement": "random blood glucose week 1", "setting": "db/db mice; 1 mg/kg once daily oral", "result": "16.1 ± 1.0", "unit": "mmol/L"}, {"measurement": "random blood glucose week 2", "setting": "db/db mice; 1 mg/kg once daily oral", "result": "16.3 ± 1.2", "unit": "mmol/L"}, {"measurement": "random blood glucose week 3", "setting": "db/db mice; 1 mg/kg once daily oral", "result": "15.9 ± 1.1", "unit": "mmol/L"}, {"measurement": "random blood glucose week 4", "setting": "db/db mice; 1 mg/kg once daily oral", "result": "15.1 ± 1.4", "unit": "mmol/L"}, {"measurement": "random blood glucose Pre", "setting": "db/db mice; 1 mg/kg once daily oral", "result": "16.8 ± 1.2", "unit": "mmol/L"}, {"measurement": "random blood glucose week 1", "setting": "db/db mice; 3 mg/kg once daily oral", "result": "14.7 ± 0.9", "unit": "mmol/L"}, {"measurement": "random blood glucose week 2", "setting": "db/db mice; 3 mg/kg once daily oral", "result": "13.0 ± 0.8", "unit": "mmol/L"}, {"measurement": "random blood glucose week 3", "setting": "db/db mice; 3 mg/kg once daily oral", "result": "12.4 ± 1.0", "unit": "mmol/L"}, {"measurement": "random blood glucose week 4", "setting": "db/db mice; 3 mg/kg once daily oral", "result": "13.2 ± 0.9", "unit": "mmol/L"}, {"measurement": "random blood glucose Pre", "setting": "db/db mice; 3 mg/kg once daily oral", "result": "18.7 ± 1.2", "unit": "mmol/L"}, {"measurement": "random blood glucose week 1", "setting": "db/db mice; 10 mg/kg once daily oral", "result": "12.9 ± 0.6", "unit": "mmol/L"}, {"measurement": "random blood glucose week 2", "setting": "db/db mice; 10 mg/kg once daily oral", "result": "10.6 ± 0.5", "unit": "mmol/L"}, {"measurement": "random blood glucose week 3", "setting": "db/db mice; 10 mg/kg once daily oral", "result": "9.1 ± 0.4", "unit": "mmol/L"}, {"measurement": "random blood glucose week 4", "setting": "db/db mice; 10 mg/kg once daily oral", "result": "9.7 ± 0.7", "unit": "mmol/L"}, {"measurement": "random blood glucose Pre", "setting": "db/db mice; 10 mg/kg once daily oral", "result": "18.3 ± 1.6", "unit": "mmol/L"}, {"measurement": "Hypoglycemic rate % week 1", "setting": "db/db mice; 0.3 mg/kg once daily oral", "result": 14.0, "unit": "%"}, {"measurement": "Hypoglycemic rate % week 2", "setting": "db/db mice; 0.3 mg/kg once daily oral", "result": 19.1, "unit": "%"}, {"measurement": "Hypoglycemic rate % week 3", "setting": "db/db mice; 0.3 mg/kg once daily oral", "result": 18.0, "unit": "%"}, {"measurement": "Hypoglycemic rate % week 4", "setting": "db/db mice; 0.3 mg/kg once daily oral", "result": 7.8, "unit": "%"}, {"measurement": "Hypoglycemic rate % week 1", "setting": "db/db mice; 1 mg/kg once daily oral", "result": 17.9, "unit": "%"}, {"measurement": "Hypoglycemic rate % week 2", "setting": "db/db mice; 1 mg/kg once daily oral", "result": 16.0, "unit": "%"}, {"measurement": "Hypoglycemic rate % week 3", "setting": "db/db mice; 1 mg/kg once daily oral", "result": 21.8, "unit": "%"}, {"measurement": "Hypoglycemic rate % week 4", "setting": "db/db mice; 1 mg/kg once daily oral", "result": 27.0, "unit": "%"}, {"measurement": "Hypoglycemic rate % week 1", "setting": "db/db mice; 3 mg/kg once daily oral", "result": 25.4, "unit": "%"}, {"measurement": "Hypoglycemic rate % week 2", "setting": "db/db mice; 3 mg/kg once daily oral", "result": 33.1, "unit": "%"}, {"measurement": "Hypoglycemic rate % week 3", "setting": "db/db mice; 3 mg/kg once daily oral", "result": 39.0, "unit": "%"}, {"measurement": "Hypoglycemic rate % week 4", "setting": "db/db mice; 3 mg/kg once daily oral", "result": 36.6, "unit": "%"}, {"measurement": "Hypoglycemic rate % week 1", "setting": "db/db mice; 10 mg/kg once daily oral", "result": 34.3, "unit": "%"}, {"measurement": "Hypoglycemic rate % week 2", "setting": "db/db mice; 10 mg/kg once daily oral", "result": 45.3, "unit": "%"}, {"measurement": "Hypoglycemic rate % week 3", "setting": "db/db mice; 10 mg/kg once daily oral", "result": 55.3, "unit": "%"}, {"measurement": "Hypoglycemic rate % week 4", "setting": "db/db mice; 10 mg/kg once daily oral", "result": 53.1, "unit": "%"}]}
